Assay results taken from US20070092587A1, “Extract from plant of japanese parsley family and process for producing the same” (priority 2004, published 2007).

Columns and labels:
[1] = biological target: T1, human muscle cell-derived aldose reductase (Homo sapiens, UniProt P15121); experiment: Inhibitory action for aldose reductase (change in NADPH absorbance at 340 nm, methylglyoxal substrate); assay type: biochemical
T1 construct: purchased Wako Pure Chemical Industries, Ltd
Procedure: Inhibitory action for aldose reductase of the extract from the root portion of Angelica keiskei koidz. was determined in accordance with the following method. As a sample, 20 μL of a 100 mM methylglyoxal solution was added to 10 μL of each of the kinds of ethanol extracts from the root portion of Angelica keiskei koidz. prepared in Example 4, and 10 μL of the water extract from the root portion of Angelica keiskei koidz. prepared in Preparation Example 1 (a solution prepared by dissolving the extract in a 50% aqueous dimethyl sulfoxide solution), 100 μL of 0.2 M phosphate buffer (pH 6.2), 20 μL of 1 mM NADPH (phosphate buffer), and 10 μL of a human muscle cell-derived aldose reductase solution (0.1 U/mL, manufactured by Wako Pure Chemical Industries, Ltd., phosphate buffer). For a period of 180 seconds after 30 seconds passed, the change in absorbance of NADPH at 340 nm was determined. As a negative control, a 50% aqueous dimethyl sulfoxide solution was used in place of the sample. Also, the absorbance was determined using distilled water as a blank solution for each sample in place of the methylglyoxal solution. The determination values were expressed as an average of two experimental values. The inhibitory ratio (%) for aldose reductase was calculated in accordance with the following formula: Inhibitory Ratio (%)=[1−(ΔAs−ΔAsb)/(ΔAc−ΔAcb)]×100, wherein ΔAs and ΔAc show a change in the absorbance of each of the sample solution and the negative control solution per minute; and ΔAsb and ΔAcb show a change in the absorbance of the blank solutions for the sample solution and the negative control solution per minute.
The inhibitory activity for aldose reductase of the extract from the leaf and stem portions of Angelica keiskei koidz. prepared in Example 3 was determined in the same manner as in Example 8.

[2] = system: Preadipocyte cell line 3T3-L1; experiment: Induction of differentiation into adipocytes (amount of triglyceride biosynthesis); assay type: cell-based; settings: isolated compounds at final 1-30 μM; seven days after addition
Procedure: The induction of differentiation into adipocytes was carried out by partially modifying the method of Rubin C. S. et al. (J. Biol. Chem., Vol. 253, No. 20, p7570-7578 (1978)). Preadipocyte cell line 3T3-L1 (ATCC CCL-92.1) was suspended in a 10% fetal bovine serum (manufactured by GIBCO)-containing Dulbecco's modified Eagle's medium (manufactured by Sigma, D6046) containing 200 μM ascorbic acid (hereinafter referred to as A-D-MEM medium) so as to have a density of 4×10^3 cells/mL, and the suspension was put in each well of a 12-well microtiter plate in an amount of 2 mL per well. The cells were cultured at 37° C. for 7 days in the presence of 5% carbon dioxide gas. The medium was exchanged with the same medium on the second day and the fourth day. On the seventh day, the medium was exchanged with A-D-MEM medium containing 0.25 μM dexamethasone. […] Here, there were set a group with addition of 4 μL of a 5 mg/mL aqueous solution of insulin (manufactured by TAKARA BIO INC.) as a positive control, and a group with addition of dimethyl sulfoxide as a negative control. After 45 hours, the medium was exchanged with A-D-MEM medium. […] The cells were cultured for additional 7 days.
The amount of triglyceride in the adipocytes was determined as an index for inducing differentiation into matured adipocytes, and as evaluation of insulin-mimetic action. After the termination of the culture, the medium was removed, and the cells were washed twice with a phosphate buffered saline. One milliliter of a solvent of hexane: isopropanol=3:2 was added thereto. The mixture was allowed to stand at room temperature for 30 minutes, and thereafter the supernatant was collected. The procedures were repeated again, and 2 mL of the resulting supernatant was concentrated to dryness. The precipitate was dissolved in 100 μL of isopropanol, and thereafter the amount of triglyceride contained in 10 μL of the resulting solution was determined with Triglyceride E-Test (manufactured by Wako Pure Chemical Industries, Ltd., code 432-40201). All of the determinations were carried out twice.
Specifically, as a sample, there was set a group with addition of the dimethyl sulfoxide solution of the extract from the root portion of Angelica keiskei koidz. with the 40% aqueous ethanol solution at a final concentration of 0.1% or 0.033%, the dimethyl sulfoxide solution of the extract from the root portion of Angelica keiskei koidz. with the 50% aqueous ethanol solution at a final concentration of 0.033% or 0.011%, the dimethyl sulfoxide solution of the extract from the root portion of Angelica keiskei koidz. with the 70% aqueous ethanol solution at a final concentration of 0.022%, the dimethyl sulfoxide solution of the extract from the root portion of Angelica keiskei koidz. with the 60% or 80% aqueous ethanol solution or the dimethyl sulfoxide solution of the extract with the 100% ethanol so as to have a final concentration of 0.067% or 0.022%, respectively, to each well. Here, there were set a group with addition of 4 μL of a 5 mg/mL aqueous solution of insulin (manufactured by TAKARA BIO INC.) as a positive control, and a group with addition of dimethyl sulfoxide as a negative control. Thereafter, the medium and the sample were exchanged in the same manner as in the method described in Example 5, and after seven days from the addition of the sample, the amount of triglyceride in the adipocytes was determined.
Here, there were set a group with addition of 4 μL of a 5 mg/mL aqueous solution of insulin (manufactured by TAKARA BIO INC.) as a positive control, and a group with addition of dimethyl sulfoxide as a negative control. Thereafter, the medium and the sample were exchanged in the same manner as in the method described in Example 5, and after seven days from the addition of the sample, the amount of triglyceride in the adipocytes was determined.

Molecule | Inhibitory Ratio (%) of Aldose Reductase ([1]; 10 μM) [%] | Inhibitory Ratio (%) of Aldose Reductase ([1]; 20 μM) [%] | Inhibitory Ratio (%) of Aldose Reductase ([1]; 40 μM) [%] | induction of biosynthesis of triglyceride (inducing action on differentiation into mature adipocytes) [2] | Inhibitory Ratio (%) of Aldose Reductase ([1]; 2.5 μM) [%] | Inhibitory Ratio (%) of Aldose Reductase ([1]; 5 μM) [%]
CC(C)=CCc1c(O)ccc(C(=O)/C=C/c2ccc(O)cc2)c1O [Isobavachalcone, isobavachalcone] | 30.2 | 47.4 | 60.1 | induction of biosynthesis of triglyceride was found |  | 
xanthoangelol H | 72.2 | 80.8 |  | induction of biosynthesis of triglyceride was found | 40.4 | 57.8
